Results: patent publication US12448358B2, “Inhibitors of protein arginine deiminase 1 and methods of preparation and use thereof” (University of Massachusetts, priority 2019, dated 2025)
Like-named read-outs stand apart in the source and are kept apart here. One block for each compound: values may come before it.

Assays:
Type in all cases: biochemical
PAD1 = biological target: T1, PAD1 (Homo sapiens, UniProt Q9ULC6); experiment: Inactivation kinetics of PAD1 (COLDER citrulline assay); conditions: for Ki / kinact/KI / kinact / fold less potent than 1 (drop in potency for PAD1): PAD1; for Ki: concentration of inhibitor that affords half-maximal inactivation; for kinact/KI: marks: * nonlinear fit of kobs versus [I], ‡ linear fit, † single kobs; for fold less potent than 1 (drop in potency for PAD1): relative to parent compound 1; for Fold PAD selectivity: PAD1 over the other PADs, bracketed value under kinact/KI
T1 construct: made in house
T1 sequence (Q9ULC6 1-663): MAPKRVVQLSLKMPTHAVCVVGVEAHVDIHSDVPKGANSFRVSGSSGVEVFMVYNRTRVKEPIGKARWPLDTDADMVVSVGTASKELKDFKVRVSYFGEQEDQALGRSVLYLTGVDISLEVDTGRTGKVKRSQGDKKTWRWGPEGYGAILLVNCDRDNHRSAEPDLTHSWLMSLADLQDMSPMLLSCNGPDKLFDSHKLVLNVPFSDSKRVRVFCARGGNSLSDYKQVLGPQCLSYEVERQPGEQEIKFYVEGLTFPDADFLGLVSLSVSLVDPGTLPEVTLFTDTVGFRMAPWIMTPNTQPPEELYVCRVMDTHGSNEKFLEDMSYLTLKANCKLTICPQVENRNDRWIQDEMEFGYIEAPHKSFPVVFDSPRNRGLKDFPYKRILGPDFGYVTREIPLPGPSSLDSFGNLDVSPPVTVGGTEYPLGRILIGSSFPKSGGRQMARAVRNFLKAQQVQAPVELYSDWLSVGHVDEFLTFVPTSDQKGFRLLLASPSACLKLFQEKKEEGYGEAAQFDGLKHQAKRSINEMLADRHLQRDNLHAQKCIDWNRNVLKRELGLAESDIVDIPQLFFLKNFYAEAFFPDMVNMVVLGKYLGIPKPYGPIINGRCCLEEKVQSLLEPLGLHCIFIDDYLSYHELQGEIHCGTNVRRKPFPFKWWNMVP
Procedure: (§1) Inactivation kinetics. […] After 15 min, reactions were quenched with liquid nitrogen and the production of citrulline was quantified using the COLDER assay. (Kearney, et al. Biochemistry 2005, 44, 10570-10582; Knipp, et al. Anal. Biochem. 2000, 286, 257-264.) The time-dependence of PAD inhibition was fit to the following equation 1, […] (1), using Grafit, version 5.0.11, where v is velocity, ν0 is initial velocity, k (or kobs is the pseudo-first-order rate constant of inactivation, and t is time. Upon reaching saturation, the concentration dependence of kobs was fit to equation 2, kobs=kinact[I]/(KI+[I]), (2), using Grafit, version 5.0.11, where kinact is the maximal rate of inactivation, KI is the concentration of inhibitor that affords half-maximal inactivation, and [I] is the concentration of inhibitor. When kobs with [I] varied linearly, kinact/KI was determined from the slope of the line. All the experiments were performed at least in duplicate.

PAD2 = biological target: T2, PAD2 (Homo sapiens, UniProt Q9Y2J8); experiment: Inactivation kinetics of PAD2 (COLDER citrulline assay); conditions: for Fold PAD selectivity: bracketed value under kinact/KI; for kinact/KI: marks: * nonlinear fit of kobs versus [I], ‡ linear fit, † single kobs; for Ki: concentration of inhibitor that affords half-maximal inactivation
T2 construct: made in house
T2 sequence (Q9Y2J8 whole entry): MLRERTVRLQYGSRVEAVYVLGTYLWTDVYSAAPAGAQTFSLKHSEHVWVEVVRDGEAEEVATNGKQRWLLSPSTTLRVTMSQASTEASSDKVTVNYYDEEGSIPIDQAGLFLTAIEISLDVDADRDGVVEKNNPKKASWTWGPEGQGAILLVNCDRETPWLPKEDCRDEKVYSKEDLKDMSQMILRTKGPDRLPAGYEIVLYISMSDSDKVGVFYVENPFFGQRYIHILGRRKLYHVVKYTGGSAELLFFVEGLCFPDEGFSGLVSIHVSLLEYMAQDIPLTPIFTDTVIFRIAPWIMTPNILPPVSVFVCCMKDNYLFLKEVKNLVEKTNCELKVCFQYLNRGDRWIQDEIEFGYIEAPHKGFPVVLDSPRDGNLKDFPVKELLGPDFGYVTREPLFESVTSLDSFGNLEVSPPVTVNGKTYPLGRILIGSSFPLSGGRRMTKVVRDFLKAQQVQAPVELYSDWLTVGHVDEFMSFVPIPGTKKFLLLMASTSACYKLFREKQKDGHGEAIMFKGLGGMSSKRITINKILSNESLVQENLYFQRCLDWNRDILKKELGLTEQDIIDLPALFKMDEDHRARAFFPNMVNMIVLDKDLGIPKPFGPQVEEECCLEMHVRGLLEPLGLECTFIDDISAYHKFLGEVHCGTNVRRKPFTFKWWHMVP
Procedure: as §1

PAD3 = biological target: T3, PAD3 (Homo sapiens, UniProt Q9ULW8); experiment: Inactivation kinetics of PAD3 (COLDER citrulline assay); conditions: for Fold PAD selectivity: bracketed value under kinact/KI; for kinact/KI: marks: * nonlinear fit of kobs versus [I], ‡ linear fit, † single kobs
T3 construct: made in house
T3 sequence (Q9ULW8 1-664): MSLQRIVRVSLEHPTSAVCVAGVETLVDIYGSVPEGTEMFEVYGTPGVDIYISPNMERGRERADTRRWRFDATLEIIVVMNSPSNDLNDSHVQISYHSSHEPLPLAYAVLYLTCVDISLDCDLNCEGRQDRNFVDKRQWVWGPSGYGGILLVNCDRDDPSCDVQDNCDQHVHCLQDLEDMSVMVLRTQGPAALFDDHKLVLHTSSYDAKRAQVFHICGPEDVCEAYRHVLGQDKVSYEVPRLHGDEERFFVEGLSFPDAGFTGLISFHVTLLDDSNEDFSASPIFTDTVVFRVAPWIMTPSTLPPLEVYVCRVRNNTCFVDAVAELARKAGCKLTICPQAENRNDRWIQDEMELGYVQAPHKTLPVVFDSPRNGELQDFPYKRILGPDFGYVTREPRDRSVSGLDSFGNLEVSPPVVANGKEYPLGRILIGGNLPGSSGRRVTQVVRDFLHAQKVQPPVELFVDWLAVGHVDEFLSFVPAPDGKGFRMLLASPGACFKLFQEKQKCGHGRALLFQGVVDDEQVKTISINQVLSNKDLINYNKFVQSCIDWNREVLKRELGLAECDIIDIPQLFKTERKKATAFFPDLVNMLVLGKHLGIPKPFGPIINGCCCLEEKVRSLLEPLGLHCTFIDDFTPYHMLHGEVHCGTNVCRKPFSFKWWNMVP
Procedure: as §1

PAD4 = biological target: T4, PAD4 (Homo sapiens, UniProt Q9UM07); experiment: Inactivation kinetics of PAD4 (COLDER citrulline assay); conditions: for Fold PAD selectivity: bracketed value under kinact/KI; for kinact/KI: marks: * nonlinear fit of kobs versus [I], ‡ linear fit, † single kobs; for Ki: concentration of inhibitor that affords half-maximal inactivation
T4 construct: made in house
T4 sequence (Q9UM07 whole entry): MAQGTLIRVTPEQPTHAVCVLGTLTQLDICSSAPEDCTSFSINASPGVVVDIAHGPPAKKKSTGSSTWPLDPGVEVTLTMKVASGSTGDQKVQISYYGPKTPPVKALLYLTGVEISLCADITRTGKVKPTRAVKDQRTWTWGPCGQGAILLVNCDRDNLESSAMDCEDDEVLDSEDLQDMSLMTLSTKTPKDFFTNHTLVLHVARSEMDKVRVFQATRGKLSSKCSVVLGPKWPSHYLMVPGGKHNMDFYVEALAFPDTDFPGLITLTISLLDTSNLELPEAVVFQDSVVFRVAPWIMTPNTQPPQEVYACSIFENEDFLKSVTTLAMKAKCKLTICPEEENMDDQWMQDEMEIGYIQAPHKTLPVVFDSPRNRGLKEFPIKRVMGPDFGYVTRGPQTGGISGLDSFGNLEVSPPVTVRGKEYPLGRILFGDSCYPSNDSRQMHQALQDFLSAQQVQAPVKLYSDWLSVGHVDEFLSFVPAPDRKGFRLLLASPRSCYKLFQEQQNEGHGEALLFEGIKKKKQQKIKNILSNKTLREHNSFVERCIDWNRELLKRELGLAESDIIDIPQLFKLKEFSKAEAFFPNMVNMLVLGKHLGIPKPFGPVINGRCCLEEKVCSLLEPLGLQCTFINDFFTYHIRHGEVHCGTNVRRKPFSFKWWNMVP
Procedure: as §1

[1] = read-out: kinact/KI (converted)

Ki (PAD1): 124 µM
kinact/KI (PAD1; [1]): 21.5 M⁻¹ s⁻¹
kinact (PAD1; read-out: kinact (converted)): 0.00267 s⁻¹
fold less potent than 1 (drop in potency for PAD1) (PAD1): 8 fold
Fold PAD selectivity (PAD1): 10 fold
Fold PAD selectivity (PAD2): [1] fold
kinact/KI (PAD2; [1]): 2.17 M⁻¹ s⁻¹
Fold PAD selectivity (PAD3): [4] fold
kinact/KI (PAD3; [1]): 9.17 M⁻¹ s⁻¹
Fold PAD selectivity (PAD4): [2] fold
kinact/KI (PAD4; [1]): 4.83 M⁻¹ s⁻¹
SMILES: N=C(CF)NCCC[C@H](NC(=O)c1cc(Cl)cc(Cl)c1O)c1nc2ccccc2[nH]1 [Compound 13]

kinact/KI (PAD1): 190 ± 20^† M^−1min^−1
Fold PAD selectivity (PAD1): [1] fold
Fold PAD selectivity (PAD2): [2] fold
kinact/KI (PAD2): 400 ± 30^† M^−1min^−1
Fold PAD selectivity (PAD3): [3] fold
kinact/KI (PAD3): 580 ± 120^† M^−1min^−1
Fold PAD selectivity (PAD4): [1] fold
kinact/KI (PAD4): 240 ± 20^† M^−1min^−1
SMILES: CC(C)c1cc(C(=O)N[C@@H](CCCNC(=N)CF)c2nc3ccccc3[nH]2)c(O)c(C(C)C)c1 [Compound 9]

Ki (PAD2): 93.7 µM
SMILES: N=C(CCl)NCCC[C@H](NC(=O)c1cc(I)cc(I)c1O)c1nc2ccccc2[nH]1 [Compound 2]

kinact/KI (PAD1): 300 ± 30^† M^−1min^−1
fold less potent than 1 (drop in potency for PAD1) (PAD1): 35 fold
Fold PAD selectivity (PAD1): 3 fold
Fold PAD selectivity (PAD2): [1] fold
kinact/KI (PAD2): 110 ± 10^† M^−1min^−1
Fold PAD selectivity (PAD3): [2] fold
kinact/KI (PAD3): 240 ± 30^† M^−1min^−1
Fold PAD selectivity (PAD4): [2] fold
kinact/KI (PAD4): 180 ± 20^† M^−1min^−1
SMILES: N=C(CF)NCCC[C@H](NC(=O)c1cccc(I)c1O)c1nc2ccccc2[nH]1 [Compound 17]

Ki (PAD2): 131 µM
SMILES: CC(C)c1cc(C(=O)N[C@@H](CCCNC(=N)CCl)c2nc3ccccc3[nH]2)c(O)c(C(C)C)c1 [Compound 10]

Ki (PAD1): 54.8 µM
kinact/KI (PAD1; [1]): 54.7 M⁻¹ s⁻¹
kinact (PAD1; read-out: kinact (converted)): 0.003 s⁻¹
fold less potent than 1 (drop in potency for PAD1) (PAD1): 3 fold
Fold PAD selectivity (PAD1): 25 fold
Fold PAD selectivity (PAD2): [1] fold
kinact/KI (PAD2; [1]): 2.17 M⁻¹ s⁻¹
Fold PAD selectivity (PAD3): [3] fold
kinact/KI (PAD3; [1]): 7 M⁻¹ s⁻¹
Fold PAD selectivity (PAD4): [2] fold
kinact/KI (PAD4; [1]): 4.17 M⁻¹ s⁻¹
SMILES: N=C(CF)NCCC[C@H](NC(=O)c1cc(Br)cc(Br)c1O)c1nc2ccccc2[nH]1 [Compound 11]

Ki (PAD1): 44.3 µM
kinact/KI (PAD1; [1]): 97.8 M⁻¹ s⁻¹
kinact (PAD1; read-out: kinact (converted)): 0.00433 s⁻¹
Fold PAD selectivity (PAD1): [8] fold
Fold PAD selectivity (PAD2): [2] fold
kinact/KI (PAD2; [1]): 27.5 M⁻¹ s⁻¹
Fold PAD selectivity (PAD3): [3] fold
kinact/KI (PAD3; [1]): 36 M⁻¹ s⁻¹
Fold PAD selectivity (PAD4): [1] fold
kinact/KI (PAD4; [1]): 12.5 M⁻¹ s⁻¹
SMILES: COc1c(I)cc(I)cc1C(=O)NC(CCCNC(=N)CF)c1nc2ccccc2[nH]1 (stereo not shown) [Compound 3]

kinact/KI (PAD1): 5300 ± 210^‡ M^−1min^−1
Fold PAD selectivity (PAD1): [2] fold
Fold PAD selectivity (PAD2): [1] fold
kinact/KI (PAD2): 3400 ± 70^‡ M^−1min^−1
Fold PAD selectivity (PAD3): [2] fold
kinact/KI (PAD3): 5500 ± 300^‡ M^−1min^−1
Fold PAD selectivity (PAD4): [1] fold
kinact/KI (PAD4): 2600 ± 70^‡ M^−1min^−1
SMILES: N=C(CCl)NCCC[C@H](NC(=O)c1cc(Cl)cc(Cl)c1O)c1nc2ccccc2[nH]1 [Compound 14]

Ki (PAD1): 46.7 µM
kinact/KI (PAD1; [1]): 25 M⁻¹ s⁻¹
kinact (PAD1; read-out: kinact (converted)): 0.00117 s⁻¹
fold less potent than 1 (drop in potency for PAD1) (PAD1): 7 fold
Fold PAD selectivity (PAD1): 13 fold
Fold PAD selectivity (PAD2): [1] fold
kinact/KI (PAD2; [1]): 2 M⁻¹ s⁻¹
Fold PAD selectivity (PAD3): [4] fold
kinact/KI (PAD3; [1]): 8.33 M⁻¹ s⁻¹
Fold PAD selectivity (PAD4): [5] fold
kinact/KI (PAD4; [1]): 10.7 M⁻¹ s⁻¹
SMILES: N=C(CF)NCCC[C@H](NC(=O)c1cc(I)ccc1O)c1nc2ccccc2[nH]1 [Compound 15]

Ki (PAD2): 91.5 µM
SMILES: N=C(CCl)NCCC[C@H](NC(=O)c1cc(Br)cc(Br)c1O)c1nc2ccccc2[nH]1 [Compound 12]

The remaining lines, values behind:

SMILES: N=C(CCl)NCCC[C@H](NC(=O)c1cccc(I)c1O)c1nc2ccccc2[nH]1 [Compound 18]
kinact/KI (PAD1): 4100 ± 300^‡ M^−1min^−1
Fold PAD selectivity (PAD1): [4] fold
Fold PAD selectivity (PAD2): [2] fold
kinact/KI (PAD2): 2210 ± 270^† M^−1min^−1
Fold PAD selectivity (PAD3): [1] fold
kinact/KI (PAD3): 1170 ± 40^† M^−1min^−1
Fold PAD selectivity (PAD4): [3] fold
kinact/KI (PAD4): 3160 ± 550^† M^−1min^−1

SMILES: N=C(CCl)NCCC[C@H](NC(=O)c1cc(I)ccc1O)c1nc2ccccc2[nH]1 [Compound 16]
kinact/KI (PAD1): 3900 ± 100^‡ M^−1min^−1
Fold PAD selectivity (PAD1): [2] fold
Fold PAD selectivity (PAD2): [1] fold
kinact/KI (PAD2): 1700 ± 70^‡ M^−1min^−1
Fold PAD selectivity (PAD3): [3] fold
kinact/KI (PAD3): 5000 ± 280^‡ M^−1min^−1
Fold PAD selectivity (PAD4): [2] fold
kinact/KI (PAD4): 3600 ± 70^‡ M^−1min^−1

SMILES: C#Cc1c(I)cc(C(=O)N[C@@H](CCCNC(=N)CCl)c2nc3ccccc3[nH]2)c(O)c1I [Compound 22]
kinact (PAD1): 0.0423 s⁻¹
Ki (PAD1): 35.2 µM
kinact/KI (PAD1): 72160 ± 10970* M^−1min^−1
kinact (PAD2): 0.79 min⁻¹
Fold PAD selectivity (PAD2): [4] fold
Ki (PAD2): 25.3 µM
kinact/KI (PAD2): 31230 ± 1440* M^−1min^−1
kinact (PAD3): 0.8 min⁻¹
Fold PAD selectivity (PAD3): [1] fold
Ki (PAD3; concentration of inhibitor that affords half-maximal inactivation): 97.6 µM
kinact/KI (PAD3): 8200 ± 30* M^−1min^−1
kinact (PAD4): 0.77 min⁻¹
Fold PAD selectivity (PAD4): [3] fold
Ki (PAD4): 30.8 µM
kinact/KI (PAD4): 25000 ± 1370* M^−1min^−1

SMILES: N=C(CF)NCCC[C@H](NC(=O)c1cc(I)cc(I)c1)c1nc2ccccc2[nH]1 [Compound 5]
Ki (PAD1): 30.2 µM
kinact/KI (PAD1; [1]): 121 M⁻¹ s⁻¹
kinact (PAD1; read-out: kinact (converted)): 0.00367 s⁻¹
Fold PAD selectivity (PAD1): [9] fold
Fold PAD selectivity (PAD2): [1] fold
kinact/KI (PAD2; [1]): 12.8 M⁻¹ s⁻¹
Fold PAD selectivity (PAD3): [3] fold
kinact/KI (PAD3; [1]): 41.2 M⁻¹ s⁻¹
Fold PAD selectivity (PAD4): [1] fold
kinact/KI (PAD4; [1]): 17.8 M⁻¹ s⁻¹

SMILES: COc1c(I)cc(I)cc1C(=O)N[C@@H](CCCNC(=N)CCl)c1nc2ccccc2[nH]1 [Compound 4]
Ki (PAD2): 208 µM

SMILES: N=C(CCl)NCCC[C@H](NC(=O)c1cc(I)c(F)c(I)c1O)c1nc2ccccc2[nH]1 [Compound 20]
Ki (PAD2): 17.5 µM

SMILES: N=C(CCl)NCCC[C@H](NC(=O)c1ccccc1O)c1nc2ccccc2[nH]1 [Compound 8]
kinact/KI (PAD1; [1]): 10 M⁻¹ s⁻¹
Fold PAD selectivity (PAD1): [1] fold
Fold PAD selectivity (PAD2): [5] fold
kinact/KI (PAD2; [1]): 46.7 M⁻¹ s⁻¹
Fold PAD selectivity (PAD3): [18] fold
kinact/KI (PAD3; [1]): 176 M⁻¹ s⁻¹
Fold PAD selectivity (PAD4): [68] fold
Ki (PAD4): 25.1 µM
kinact/KI (PAD4; [1]): 684 M⁻¹ s⁻¹
kinact (PAD4; read-out: kinact (converted)): 1.03 min⁻¹
